# Key:
# Abl = biological target: T1, Abl (Homo sapiens, UniProt P00519); assay: Abl enzymatic assay (ADP-Glo kinase assay); assay type: biochemical
# T1 construct: purchased Merck-Millipore
# Protocol: (§1) Src, Fyn, and Abl were purchased from Merck-Millipore. Reactions were performed according to the manufacturer’s instructions with minor modifications. All substrates were used at least at twice the concentration of apparent Km. In detail: Src reactions were performed using 500 μM Src-peptide (KVEKIGEGTYGVVYK), 100 μM ATP, and 0.00087% NP-40; Fyn reactions were performed using 360 μM Src-peptide (KVEKIGEGTYGVVYK), 200 μM ATP, and 0.0026% NP-40; Abl reactions were performed using 50 μM abltide (EAIYAAPFAKKK), 30 μM ATP, and 0.00087% NP-40. All reactions were performed using 10–50 ng of enzyme and 10% DMSO in 10 μL of kinase buffer (8 mM MOPS-NaOH pH7.0, 0.2 mM EDTA, 10 mM MgAc) at 30 °C for 10 min.
# (§2) To avoid peptide adsorbing to the plastic surface, protein low-binding tubes were used. ADP-Glo kinase assay (Promega) was then used to detect kinase activity according to the manufacturer’s instructions with minor modifications. In detail, reactions were transferred to white 384 well-plates and stopped by adding 10 µL of ADP-Glo reagent (Promega) for 50 min at room temperature. A total of 20 μL of detection reagent (Promega) was then added for 30 min and the reaction read using a GloMax Discover microplate reader (Promega). Data were plotted using GraphPad Prism 5.0. IC50 values were obtained according to Equation (1):v = V/{1 + (I/IC50)} (1) where v is the measured reaction velocity, V is the apparent maximal velocity in the absence of inhibitor, I is the inhibitor concentration, and IC50 is the 50% inhibitory dose. Compounds tested were assumed to act as fully ATP-competitive inhibitors. Therefore, Ki values were calculated according to Equation (2):Ki = IC50/(1+ […]) (2) where Ki is the affinity of the inhibitor to the enzyme, S is the ATP concentration, and Km is the affinity of ATP calculated according to the Michaelis–Menten equation.
# Src = biological target: T2, Src (Homo sapiens, UniProt P12931); assay: Src enzymatic assay (ADP-Glo kinase assay); assay type: biochemical; conditions: for Ki: mean of at least three experiments, 100 μM ATP
# T2 construct: purchased Merck-Millipore
# T2 sequence (P12931 whole entry, species assumed): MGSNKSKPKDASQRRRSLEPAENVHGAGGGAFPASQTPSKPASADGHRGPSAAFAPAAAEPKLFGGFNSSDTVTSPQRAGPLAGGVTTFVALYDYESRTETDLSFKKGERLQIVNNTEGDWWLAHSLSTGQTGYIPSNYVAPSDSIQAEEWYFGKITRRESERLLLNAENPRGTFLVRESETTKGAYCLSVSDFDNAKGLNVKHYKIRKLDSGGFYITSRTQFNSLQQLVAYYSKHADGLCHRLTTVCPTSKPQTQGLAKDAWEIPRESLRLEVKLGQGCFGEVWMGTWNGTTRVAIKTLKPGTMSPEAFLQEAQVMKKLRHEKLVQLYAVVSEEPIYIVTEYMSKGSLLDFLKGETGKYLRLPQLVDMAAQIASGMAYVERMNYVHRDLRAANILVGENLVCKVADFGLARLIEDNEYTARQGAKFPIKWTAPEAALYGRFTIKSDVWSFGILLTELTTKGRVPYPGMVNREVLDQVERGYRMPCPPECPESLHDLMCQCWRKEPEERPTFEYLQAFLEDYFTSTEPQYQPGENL
# Protocol: as §1, §2
# Fyn = biological target: T3, Fyn (Homo sapiens, UniProt P06241); assay: Fyn enzymatic assay (ADP-Glo kinase assay); assay type: biochemical; conditions: for Ki: mean of at least three experiments, 200 μM ATP
# T3 construct: purchased Merck-Millipore
# T3 sequence (P06241 whole entry, species assumed): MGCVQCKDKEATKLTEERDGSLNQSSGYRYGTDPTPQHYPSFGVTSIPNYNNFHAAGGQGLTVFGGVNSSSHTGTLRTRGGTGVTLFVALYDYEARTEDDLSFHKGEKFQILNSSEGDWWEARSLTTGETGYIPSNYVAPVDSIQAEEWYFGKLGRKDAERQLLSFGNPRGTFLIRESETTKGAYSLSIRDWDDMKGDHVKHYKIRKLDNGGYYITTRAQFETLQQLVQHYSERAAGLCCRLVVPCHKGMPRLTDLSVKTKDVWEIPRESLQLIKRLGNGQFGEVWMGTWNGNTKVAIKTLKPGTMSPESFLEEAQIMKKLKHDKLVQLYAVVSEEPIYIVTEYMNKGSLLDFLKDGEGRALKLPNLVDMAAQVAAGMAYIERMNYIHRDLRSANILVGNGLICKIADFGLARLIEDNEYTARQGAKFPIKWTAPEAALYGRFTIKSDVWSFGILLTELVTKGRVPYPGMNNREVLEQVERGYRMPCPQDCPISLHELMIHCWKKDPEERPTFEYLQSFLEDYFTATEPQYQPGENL
# Protocol: as §1, §2
# T1 sequence (P00519 whole entry, species assumed): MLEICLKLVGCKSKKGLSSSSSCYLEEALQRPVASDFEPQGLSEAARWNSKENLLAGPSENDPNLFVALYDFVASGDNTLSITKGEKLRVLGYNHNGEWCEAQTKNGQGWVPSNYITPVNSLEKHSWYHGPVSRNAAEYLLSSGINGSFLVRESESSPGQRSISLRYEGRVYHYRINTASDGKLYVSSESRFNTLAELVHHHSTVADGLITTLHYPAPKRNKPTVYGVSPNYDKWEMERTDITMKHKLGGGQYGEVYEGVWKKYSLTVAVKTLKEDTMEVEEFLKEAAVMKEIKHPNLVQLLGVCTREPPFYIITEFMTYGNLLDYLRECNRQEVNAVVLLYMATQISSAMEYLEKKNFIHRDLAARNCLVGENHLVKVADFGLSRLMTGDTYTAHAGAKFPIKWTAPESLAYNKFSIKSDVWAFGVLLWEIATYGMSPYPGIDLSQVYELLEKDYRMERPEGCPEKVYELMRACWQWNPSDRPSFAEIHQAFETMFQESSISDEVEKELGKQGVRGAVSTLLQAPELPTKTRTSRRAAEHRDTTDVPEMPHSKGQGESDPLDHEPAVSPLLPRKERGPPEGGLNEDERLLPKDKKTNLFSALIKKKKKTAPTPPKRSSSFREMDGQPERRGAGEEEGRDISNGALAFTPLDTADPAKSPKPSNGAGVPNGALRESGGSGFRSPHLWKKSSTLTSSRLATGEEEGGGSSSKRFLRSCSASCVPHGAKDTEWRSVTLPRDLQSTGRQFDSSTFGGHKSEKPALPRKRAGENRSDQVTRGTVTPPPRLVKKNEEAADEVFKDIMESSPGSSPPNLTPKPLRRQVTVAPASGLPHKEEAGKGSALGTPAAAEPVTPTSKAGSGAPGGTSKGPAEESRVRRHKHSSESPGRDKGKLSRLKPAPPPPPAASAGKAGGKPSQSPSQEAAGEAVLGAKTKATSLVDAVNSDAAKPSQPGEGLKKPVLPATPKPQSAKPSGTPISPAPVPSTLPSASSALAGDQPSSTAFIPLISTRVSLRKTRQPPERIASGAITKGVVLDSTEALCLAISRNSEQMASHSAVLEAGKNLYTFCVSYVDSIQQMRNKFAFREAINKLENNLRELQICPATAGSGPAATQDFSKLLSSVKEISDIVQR
Compound,Activity towards Bcr-Abl in cell-free assay (in words) (Abl),inhibition at 10 µM (Abl) [%],Activity towards Src in cell-free assay (in words) (Src),inhibition at 1 µM (Src) [%],inhibition at 1 µM (Abl) [%],inhibition at 10 µM (Src) [%],inhibition at 1 µM (Fyn) [%],inhibition at 10 µM (Fyn) [%],melting point,inhibition at 100 µM (Src) [%],inhibition at 100 µM (Fyn) [%],Ki (Fyn) [µM],Ki (Src) [µM]
"Clc1ccccc1Nc1nc(SCCN2CCOCC2)nc2c1cnn2CC(Cl)c1ccccc1 (centres unmarked) [2e, 1-(2-Chloro-2-phenylethyl)-N-(2-chlorophenyl)-6-((2-morpholinoethyl)thio)-1H-pyrazolo[3,4-d]pyrimidin-4-amine]",–,26.3,–,–,–,–,–,–,117 to 118 °C,–,–,–,–
"Cl.Oc1cc(Nc2nc(SCCN3CCOCC3)nc3c2cnn3CC(Cl)c2ccccc2)ccc1F (centres unmarked) [2f, 5-({1-(2-Chloro-2-phenylethyl)-6-[(2-morpholinoethyl)thio]-1H-pyrazolo[3,4-d]pyrimidin-4-yl)amino)-2-fluorophenol hydrochloride]",–,67,–,–,3,79,–,–,238 to 239 °C,–,–,–,–
"CCc1nc(Nc2ccccc2)c2cnn(CC(Cl)c3ccccc3)c2n1 (centres unmarked) [2h, 1-(2-Chloro-2-phenylethyl)-6-ethyl-N-phenyl-1H-pyrazolo[3,4-d]pyrimidin-4-amine]",–,–,–,–,34,12,–,57,174 to 176 °C,98.3,82,10.3 ± 3.13,–
"Clc1cccc(Nc2nc(C3CCCC3)nc3c2cnn3CC(Cl)c2ccccc2)c1 (centres unmarked) [2i, 1-(2-Chloro-2-phenylethyl)-N-(3-chlorophenyl)-6-cyclopentyl-1H-pyrazolo[3,4-d]pyrimidin-4-amine]",–,–,–,–,–,56,–,15,189 to 190 °C,98.8,19,–,–
"ClC(Cn1ncc2c(Nc3ccccc3)nc(C3CCCCC3)nc21)c1ccccc1 (centres unmarked) [2j, 1-(2-Chloro-2-phenylethyl)-6-cyclohexyl-N-phenyl-1H-pyrazolo[3,4-d]pyrimidin-4-amine]",–,–,–,–,39,5,–,13,134 to 136 °C,95.3,38,–,–
"FC(F)(F)c1nc(Nc2ccccc2)c2cnn(CC(Cl)c3ccccc3)c2n1 (centres unmarked) [2k, 1-(2-Chloro-2-phenylethyl)-N-phenyl-6-(trifluoromethyl)-1H-pyrazolo[3,4-d]pyrimidin-4-amine]",–,39,–,–,–,50.3,–,47,139 to 141 °C,99.2,66,3.79 ± 1.01,–
"Fc1cccc(Nc2nc(C(F)(F)F)nc3c2cnn3CC(Cl)c2ccccc2)c1 (centres unmarked) [2l, 1-(2-Chloro-2-phenylethyl)-N-(3-fluorophenyl)-6-(trifluoromethyl)-1H-pyrazolo[3,4-d]pyrimidin-4-amine]",–,–,–,–,40,–,19,10,164 to 166 °C,–,–,–,–
"FC(F)(F)c1nc(Nc2cccc(Cl)c2)c2cnn(CC(Cl)c3ccccc3)c2n1 (centres unmarked) [2m, N-(3-Chlorophenyl)-1-(2-chloro-2-phenylethyl)-6-trifluoromethyl-1H-pyrazolo[3,4-d]pyrimidin-4-amine]",–,18,–,–,15,67,2.5,20,88 to 90 °C,–,–,–,–
"ClC(Cn1ncc2c(Nc3ccccc3)nc(-c3ccccc3)nc21)c1ccccc1 (centres unmarked) [2n, 1-(2-Chloro-2-phenylethyl)-N,6-diphenyl-1H-pyrazolo[3,4-d]pyrimidin-4-amine]",–,18,–,11,5,13,16,23,130 to 140 °C (dec.),–,–,–,–
"Clc1cccc(Nc2nc(-c3ccccc3)nc3c2cnn3CC(Cl)c2ccccc2)c1 (centres unmarked) [2o, 1-(2-Chloro-2-phenylethyl)-N-(3-chlorophenyl)-6-phenyl-1H-pyrazolo[3,4-d]pyrimidin-4-amine]",–,–,–,–,–,–,–,8,82 to 84 °C,–,–,–,–
"CCc1nc(Nc2ccccc2)c2cnn(CC(Cl)c3ccc(Cl)cc3)c2n1 (centres unmarked) [2r, 1-(2-Chloro-2-(4-chlorophenyl)ethyl)-6-ethyl-N-phenyl-1H-pyrazolo[3,4-d]pyrimidin-4-amine]",–,–,–,–,–,7.5,48,75,193 to 195 °C,–,–,1.74 ± 0.71,–

# Continued, values first:
Activity towards Bcr-Abl in cell-free assay (in words) (Abl),inhibition at 10 µM (Abl) [%],Activity towards Src in cell-free assay (in words) (Src),inhibition at 1 µM (Src) [%],inhibition at 1 µM (Abl) [%],inhibition at 10 µM (Src) [%],inhibition at 1 µM (Fyn) [%],inhibition at 10 µM (Fyn) [%],melting point,inhibition at 100 µM (Src) [%],inhibition at 100 µM (Fyn) [%],Ki (Fyn) [µM],Ki (Src) [µM],Compound
inactive,23,inactive,24,–,–,–,–,–,–,–,–,–,"CSc1nc(Nc2ccc(Cl)cc2)c2cnn(CC(Cl)c3ccccc3)c2n1 (centres unmarked) [2b, 1-(2-Chloro-2-phenylethyl)-N-(4-chlorophenyl)-6-(methylthio)-1H-pyrazolo[3,4-d]pyrimidin-4-amine]"
–,35,–,16,18,27,33,64,128 to 131 °C,–,–,–,–,"CCSc1nc(Nc2ccccc2)c2cnn(CC(Cl)c3ccccc3)c2n1 (centres unmarked) [2c, 1-(2-Chloro-2-phenylethyl)-6-(ethylthio)-N-phenyl-1H-pyrazolo[3,4-d]pyrimidin-4-amine]"
–,24,–,–,–,34,–,8,–,99.5,26,–,–,"CC(C)Sc1nc(Nc2cccc(Cl)c2)c2cnn(CC(Cl)c3ccccc3)c2n1 (centres unmarked) [2d, 1-(2-Chloro-2-phenylethyl)-N-(3-chlorophenyl)-6-(isopropylthio)-1H-pyrazolo[3,4-d]pyrimidin-4-amine]"
–,83,–,43.3,33.5,93.6,–,–,146 to 149 °C,–,–,–,–,"Oc1cc(Nc2nc(SCCN3CCOCC3)nc3c2cnn3CC(Cl)c2ccccc2)c(F)cc1F (centres unmarked) [2g, 5-((1-(2-Chloro-2-phenylethyl)-6-((2-morpholinoethyl)thio)-1H-pyrazolo[3,4-d]pyrimidin-4-yl)amino)-2,4-difluorophenol]"
–,12,–,14,–,55,15,60,227 to 230 °C,–,–,2.68 ± 0.37,14.4 ± 4.4,"CSc1nc(Nc2ccccc2)c2cnn(CC(Cl)c3ccc(F)cc3)c2n1 (centres unmarked) [2p, 1-(2-Chloro-2-(4-fluorophenyl)ethyl)-6-(methylthio)-N-phenyl-1H-pyrazolo[3,4-d]pyrimidin-4-amine]"
–,25,–,29,20,48,24,78,202 to 203 °C,–,–,2.07 ± 1.1,16.5 ± 4,"Cc1nc(Nc2ccccc2)c2cnn(CC(Cl)c3ccc(Cl)cc3)c2n1 (centres unmarked) [2q, 1-(2-Chloro-2-(4-chlorophenyl)ethyl)-6-methyl-N-phenyl-1H-pyrazolo[3,4-d]pyrimidin-4-amine]"
–,–,–,–,–,–,–,–,154 to 156 °C,–,–,10.2 ± 2.11,–,"CCCc1nc(Nc2ccccc2)c2cnn(CC(Cl)c3ccc(Cl)cc3)c2n1 (centres unmarked) [2s, 1-(2-Chloro-2-(4-chlorophenyl)ethyl)-N-phenyl-6-propyl-1H-pyrazolo[3,4-d]pyrimidin-4-amine]"

# Reference: publication PMC10384936, “Identification and Biological Characterization of the Pyrazolo[3,4-d]pyrimidine Derivative SI388 Active as Src Inhibitor” (Pharmaceuticals, 2023)
